Measurements taken from US20140135310A1, “SULPHONAMIDE DERIVATIVES OF ALICYCLIC AMINES FOR THE TREATMENT OF CENTRAL NERVOUS SYSTEM DISEASES” (Adamed Sp. z o.o., priority 2011, published 2014).

Experiments:
5-HT2A receptor = molecular target: T1, 5-HT2A receptor (Homo sapiens, UniProt P28223); assay: Radioligand binding assay, serotoninergic 5-HT2A receptors; conditions: binding assay result in %, Table 5a
T1 construct: purchased PerkinElmer
Summary of the method: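 Radioligand competition binding with scintillation counting; nonspecific binding defined by excess unlabelled ligand. Data as percent inhibition of control specific binding. IC50 by Hill-equation fit of competition curves; Ki by Cheng-Prusoff, with radioligand Kd from Scatchard plot.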

[1] = system: α1 adrenergic receptors (rat cerebral cortex); assay: Radioligand binding assay, adrenergic α1 receptors; conditions: test compound 1×10^−6 M
Summary of the method: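 Values derive from radioligand displacement, with non-specific binding defined by excess cold ligand and detection by scintillation. Hill-fit IC50s were converted to Ki via Cheng-Prusoff using Scatchard-derived Kd; percent inhibition of control specific binding also reported.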

[2] = molecular target: dopaminergic receptors D2 (Homo sapiens, UniProt P14416); assay: Radioligand binding assay, dopaminergic D2 receptors; conditions: binding assay, test compound 1×10^−6 M
Chain of dopaminergic receptors D2 (P14416 whole entry): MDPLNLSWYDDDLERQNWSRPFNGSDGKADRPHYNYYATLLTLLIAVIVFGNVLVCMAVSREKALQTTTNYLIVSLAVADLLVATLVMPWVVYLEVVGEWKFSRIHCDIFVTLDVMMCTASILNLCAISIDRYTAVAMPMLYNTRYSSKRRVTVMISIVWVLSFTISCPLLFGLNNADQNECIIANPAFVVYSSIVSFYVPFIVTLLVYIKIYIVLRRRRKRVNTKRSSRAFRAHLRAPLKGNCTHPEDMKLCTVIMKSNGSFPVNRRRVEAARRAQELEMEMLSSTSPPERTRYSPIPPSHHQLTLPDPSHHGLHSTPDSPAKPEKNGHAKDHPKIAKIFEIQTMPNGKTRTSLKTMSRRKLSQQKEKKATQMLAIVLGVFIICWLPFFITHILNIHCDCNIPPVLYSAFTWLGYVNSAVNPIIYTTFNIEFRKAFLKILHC
Summary of the method: (§1)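 Competition radioligand binding at human D2, D3 and D4.4 receptors, detected by scintillation counting; nonspecific binding defined with excess unlabelled ligand. Results as percent inhibition of control specific binding; IC50 by Hill-equation nonlinear regression; Ki via Cheng-Prusoff, with radioligand KD from Scatchard plot.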

[3] = molecular target: dopaminergic receptors D3 (Homo sapiens, UniProt P35462); assay: Radioligand binding assay, dopaminergic D3 receptors; conditions: test compound 1×10^−6 M
Chain of dopaminergic receptors D3 (P35462 whole entry): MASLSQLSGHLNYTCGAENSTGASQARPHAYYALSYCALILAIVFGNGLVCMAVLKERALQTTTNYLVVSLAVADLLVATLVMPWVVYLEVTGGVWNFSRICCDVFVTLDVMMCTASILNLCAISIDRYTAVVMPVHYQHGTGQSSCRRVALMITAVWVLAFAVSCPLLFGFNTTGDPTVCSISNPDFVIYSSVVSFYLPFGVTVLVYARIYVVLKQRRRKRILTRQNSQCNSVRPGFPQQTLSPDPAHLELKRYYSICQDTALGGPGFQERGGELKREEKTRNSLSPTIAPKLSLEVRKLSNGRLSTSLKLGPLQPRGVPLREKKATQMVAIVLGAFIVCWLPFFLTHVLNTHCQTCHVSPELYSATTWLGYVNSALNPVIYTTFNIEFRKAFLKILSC
Summary of the method: as §1

5-HT6 receptor = molecular target: T2, 5-HT6 receptor (Homo sapiens, UniProt P50406); assay: Radioligand binding assay, serotoninergic 5-HT6 receptors; conditions: binding assay result in %, Table 5a;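 further: test compound at 1 µM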
T2 construct: purchased PerkinElmer
T2 sequence (P50406 whole entry): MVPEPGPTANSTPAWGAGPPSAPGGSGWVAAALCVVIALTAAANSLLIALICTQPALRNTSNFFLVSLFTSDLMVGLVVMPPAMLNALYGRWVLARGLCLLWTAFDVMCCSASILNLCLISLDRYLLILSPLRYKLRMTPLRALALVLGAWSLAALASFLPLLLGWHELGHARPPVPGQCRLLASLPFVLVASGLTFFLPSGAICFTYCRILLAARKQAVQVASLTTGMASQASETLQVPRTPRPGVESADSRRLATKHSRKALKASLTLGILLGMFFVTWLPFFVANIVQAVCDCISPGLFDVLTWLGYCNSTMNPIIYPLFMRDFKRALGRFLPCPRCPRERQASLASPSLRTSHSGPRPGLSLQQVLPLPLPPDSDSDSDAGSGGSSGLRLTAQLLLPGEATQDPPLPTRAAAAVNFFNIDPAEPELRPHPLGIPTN
Summary of the method: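 Values are Ki from Cheng–Prusoff, taking IC50 from Hill nonlinear regression of competition curves and KD from a Scatchard plot. Specific binding was total minus binding with excess unlabelled ligand. Radioligand displacement was detected by scintillation counting, and data were also reported as percent of control specific binding.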

5-HT7 receptor = molecular target: T3, 5-HT7 receptor (Homo sapiens, UniProt P34969); assay: Radioligand binding assay, serotoninergic 5-HT7 receptors; conditions: binding assay result in %, Table 5a;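 further: test compound at 1 µM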
T3 construct: purchased PerkinElmer
T3 sequence (P34969 whole entry): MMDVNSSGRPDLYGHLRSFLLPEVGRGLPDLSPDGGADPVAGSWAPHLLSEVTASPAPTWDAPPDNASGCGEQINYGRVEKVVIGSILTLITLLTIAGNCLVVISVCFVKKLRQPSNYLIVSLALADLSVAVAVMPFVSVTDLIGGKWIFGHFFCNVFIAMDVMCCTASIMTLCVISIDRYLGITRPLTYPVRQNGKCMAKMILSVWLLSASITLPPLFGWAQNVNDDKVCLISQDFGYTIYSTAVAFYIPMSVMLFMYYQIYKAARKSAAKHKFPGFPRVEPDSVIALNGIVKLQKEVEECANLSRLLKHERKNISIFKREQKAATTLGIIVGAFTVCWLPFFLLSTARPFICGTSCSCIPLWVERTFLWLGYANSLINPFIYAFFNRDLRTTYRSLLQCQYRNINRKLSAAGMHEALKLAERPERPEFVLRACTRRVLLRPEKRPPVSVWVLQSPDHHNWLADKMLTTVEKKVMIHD
Summary of the method: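 Competition binding at human 5-HT7 receptors with a radioligand, detected by scintillation counting; non-specific binding was defined with excess unlabelled ligand. IC50 came from Hill-equation fits of competition curves, and Ki from Cheng–Prusoff using radioligand concentration and Scatchard-derived KD.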

[4] = molecular target: T4, 5-HT1A receptor (rat hippocampus) (Rattus norvegicus, UniProt P19327); assay: Radioligand binding assay, serotoninergic 5-HT1A receptors; conditions: binding assay result in %, Table 5a;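 further: test compound at 1 µM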
T4 construct: hippocampus; from tissue; host or cells: rat hippocampus
T4 sequence (P19327 1-422): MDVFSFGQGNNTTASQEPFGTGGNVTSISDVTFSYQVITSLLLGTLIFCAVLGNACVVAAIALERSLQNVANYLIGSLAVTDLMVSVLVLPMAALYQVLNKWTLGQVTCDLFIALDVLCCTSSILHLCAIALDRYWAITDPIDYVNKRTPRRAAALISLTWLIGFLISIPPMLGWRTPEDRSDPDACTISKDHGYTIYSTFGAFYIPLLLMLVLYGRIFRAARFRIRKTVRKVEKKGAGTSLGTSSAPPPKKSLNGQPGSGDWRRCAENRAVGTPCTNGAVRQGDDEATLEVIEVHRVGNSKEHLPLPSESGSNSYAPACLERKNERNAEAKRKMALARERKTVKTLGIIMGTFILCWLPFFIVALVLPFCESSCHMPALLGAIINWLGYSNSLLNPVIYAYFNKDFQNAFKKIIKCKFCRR

[5] = molecular target: T5, serotonin transporter (SERT) (Homo sapiens, UniProt P31645); assay: Radioligand binding assay, serotonin transporter (SERT); conditions: binding assay, test compound 1×10^−6 M
T5 construct: expressed in transfected cells; host or cells: CHO cells
T5 sequence (P31645 whole entry): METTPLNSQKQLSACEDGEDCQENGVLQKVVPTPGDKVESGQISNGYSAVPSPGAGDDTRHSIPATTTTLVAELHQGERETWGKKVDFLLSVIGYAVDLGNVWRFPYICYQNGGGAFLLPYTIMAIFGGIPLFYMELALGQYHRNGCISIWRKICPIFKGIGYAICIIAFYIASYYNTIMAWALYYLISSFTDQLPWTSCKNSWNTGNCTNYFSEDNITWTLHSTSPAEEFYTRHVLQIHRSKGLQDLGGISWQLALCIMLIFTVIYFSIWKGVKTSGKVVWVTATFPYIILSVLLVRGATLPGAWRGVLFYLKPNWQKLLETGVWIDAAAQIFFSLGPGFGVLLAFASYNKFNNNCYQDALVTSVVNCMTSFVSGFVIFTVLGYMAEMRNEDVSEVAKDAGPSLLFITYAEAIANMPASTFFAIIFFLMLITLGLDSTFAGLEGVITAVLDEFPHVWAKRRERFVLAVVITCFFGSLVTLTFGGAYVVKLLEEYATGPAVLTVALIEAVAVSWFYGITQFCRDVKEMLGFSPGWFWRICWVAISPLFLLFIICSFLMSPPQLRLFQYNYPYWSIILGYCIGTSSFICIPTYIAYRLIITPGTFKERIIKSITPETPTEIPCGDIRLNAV
Summary of the method: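 Radioligand competition binding with scintillation detection; specific binding is total minus binding under excess unlabelled ligand. Reported as % of control specific binding or % inhibition; IC50 from Hill-equation non-linear regression of competition curves, and Ki via Cheng-Prusoff using radioligand concentration and Scatchard-derived KD.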

T1 sequence (P28223 whole entry): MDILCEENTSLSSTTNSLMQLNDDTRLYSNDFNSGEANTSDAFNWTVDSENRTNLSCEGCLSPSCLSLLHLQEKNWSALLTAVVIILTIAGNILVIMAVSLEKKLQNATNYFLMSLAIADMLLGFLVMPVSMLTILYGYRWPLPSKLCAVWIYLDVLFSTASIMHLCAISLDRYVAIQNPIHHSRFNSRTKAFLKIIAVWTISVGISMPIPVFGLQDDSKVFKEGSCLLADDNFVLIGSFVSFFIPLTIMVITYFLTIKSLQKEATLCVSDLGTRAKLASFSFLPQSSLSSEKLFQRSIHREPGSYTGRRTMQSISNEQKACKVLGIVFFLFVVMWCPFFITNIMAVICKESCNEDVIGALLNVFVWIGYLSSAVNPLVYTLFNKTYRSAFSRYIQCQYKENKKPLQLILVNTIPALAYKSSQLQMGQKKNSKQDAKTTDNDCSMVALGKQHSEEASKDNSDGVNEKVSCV

SMILES | inhibition at 1 µM (5-HT2A receptor) [%] | α1 [%] [1] [%] | inhibition at 1 µM [2] [%] | inhibition at 1 µM [3] [%] | inhibition at 1 µM (5-HT6 receptor) [%] | inhibition at 1 µM (5-HT7 receptor) [%] | inhibition at 1 µM [4] [%] | inhibition at 1 µM [5] [%] | 5-HT2A [%] (5-HT2A receptor) | D2 [%] [2] [%] | D3 [%] [3] [%] | 5-HT6 [%] (5-HT6 receptor) | 5-HT7 [%] (5-HT7 receptor) | 5-HT1A [%] [4] [%] | SERT [%] [5] [%]
Cn1ccc2c(S(=O)(=O)NCC3CN(CCOc4cccc5ccccc45)C3)cccc21 [Compound 170, 1-Methyl-N-[[1-[2-(1-naphthyloxy)ethyl]azetidin-3-yl]methyl]indole-4-sulphonamide] | 72 | 63 | 79 | 98 | 93 | 104 | 90 | 93 |  |  |  |  |  |  | 
Cc1cccc(S(=O)(=O)NC2CCN(CCOc3cccc4c3OCCO4)CC2)c1 [Compound 118, N-[1-[2-(2,3-Dihydro-1,4-benzodioxan-8-yloxy)ethyl]-4-piperidine]-3-methyl-benzenesulphonamide] |  | 72 |  |  |  |  |  |  | 83 | 32 | 20 | 51 | 99 | 85 | 41
O=S(=O)(NCC1CN(CCOc2cccc3c2OCCO3)C1)c1ccc(C(F)(F)F)cc1 [Compound 180, N-[[1-[2-(2,3-Dihydro-1,4-benzodioxin-5-yloxy)ethyl]azetidin-3-yl]methyl]-4-(trifluoromethyl)benzenesulphonamide] | 68 | 39 | 23 | 46 | 31 | 94 | 93 | 14 |  |  |  |  |  |  | 
O=S(=O)(NCC1CCN(CCOc2cccc3c2OCCO3)C1)c1ccc(Cl)s1 (centres unmarked) [Compound 316, 5-Chloro-N-[[1-[2-(2,3-dihydro-1,4-benzodioxin-5-yloxy)ethyl]pyrrolidin-3-yl]-methyl]thiophene-2-sulphonamide] | 82 | 66 | -2 | 36 | 36 | 87 | 74 | 8 |  |  |  |  |  |  | 
O=S(=O)(NCC1CCN(CCOc2cccc3c2OCCO3)C1)c1cccs1 (centres unmarked) [Compound 302, N-[[1-[2-(2,3-Dihydro-1,4-benzodioxin-5-yloxy)ethyl]pyrrolidin-3-yl]-methyl]thiophene-2-sulphonamide] | 52 | 63 | 34 | 37 | 35 | 105 | 89 | 37 |  |  |  |  |  |  | 
O=S(=O)(NC1CCN(CCOc2cccc3[nH]ccc23)C1)c1ccccc1 (centres unmarked) [Compound 51, N-[1-[2-(1H-Indol-4-yloxy)ethyl]pyrrolidin-3-yl]benzenesulphonamide] | 67 | 77 | 54 | 103 | 10 | 101 | 91 | 6 |  |  |  |  |  |  | 
O=S(=O)(NC1CN(CCOc2cccc3c2OCCO3)C1)c1ccccc1 [Compound 88, N-[1-[2-(2,3-Dihydro-1,4-benzodioxan-8-yloxy)ethyl]azetidin-3-yl]-benzenesulphonamide] |  | −23 |  |  |  |  |  |  | 34 | −5 | −2 | 13 | 84 | 96 | −13
O=S(=O)(NC1CCN(CCCc2noc3cc(F)ccc23)C1)c1ccc(F)cc1 (centres unmarked) [Compound 8, 4-Fluoro-N-[1-[3-(6-fluoro-1,2-benzoxazol-3-yl)propyl]pyrrolidin-3-yl]benzenesulphonamide] | 97 | 95 | 72 | 18 | 64 | 85 | 5 | -13 |  |  |  |  |  |  | 
O=S(=O)(NCC1CN(CCOc2cccc3c2OCCO3)C1)c1ccc2cc(Cl)ccc2c1 [Compound 174, 6-Chloro-N-[[1-[2-(2,3-dihydro-1,4-benzodioxin-5-yloxy)ethyl]azetidin-3-yl]methyl]naphthalene-2-sulphonamide] | 44 | 15 | 25 | 22 | 64 | 90 | 91 | 20 |  |  |  |  |  |  | 
O=S(=O)(NCC1CCN(CCOc2cccc3ccccc23)C1)c1ccc(F)c(Cl)c1 (centres unmarked) [Compound 277, 3-Chloro-4-fluoro-N-[[1-[2-(1-naphthyloxy)ethyl]pyrrolidin-3-yl]methyl]benzenesulphonamide] | 85 | 21 | 34 | 90 | 93 | 108 | 85 | 68 |  |  |  |  |  |  | 
O=S(=O)(NCC1CN(CCOc2cccc3c2OCCO3)C1)c1ccsc1 [Compound 191, N-[[1-[2-(2,3-Dihydro-1,4-benzodioxin-5-yloxy)ethyl]azetidin-3-yl]methyl]-thiophene-3-sulphonamide] | 42 | 54 | 7 | 25 | 5 | 93 | 98 | 32 |  |  |  |  |  |  | 
O=S(=O)(NC1CCN(CCCc2c[nH]c3ccc(Cl)cc23)C1)c1ccccc1 (centres unmarked) [Compound 81, N-[1-[3-(5-Chloro-1H-indol-3-yl)propyl]pyrrolidin-3-yl]benzene-sulphonamide] | 75 | 36 | 60 | 86 | 75 | 84 | 109 | 78 |  |  |  |  |  |  | 
O=S(=O)(NC1CCN(CCOc2cccc3ccccc23)CC1)c1cccc(O)c1 [Compound 119, 3-Hydroxy-N-[1-[2-(1-naphthyloxy)ethyl]-4-piperidine]benzene-sulphonamide] |  | 78 |  |  |  |  |  |  | 69 | 79 | 93 | 57 | 85 | 89 | 10
CC1(C)Cc2cccc(OCCN3CCC(CNS(=O)(=O)c4ccc5ccccc5c4)C3)c2O1 (centres unmarked) [Compound 114, N-[[1-[2-[(2,2-Dimethyl-3H-benzofuran-7-yl)oxy]ethyl]pyrrolidin-3-yl]methyl]naphthalene-2-sulphonamide] | 90 | 27 | 49 | 62 | 56 | 97 | 98 | 5 |  |  |  |  |  |  | 
Cc1cccc(S(=O)(=O)NC2CCN(CCOc3cccc4[nH]ccc34)CC2)c1 [Compound 56, N-[1-[2-(1H-Indol-4-yloxy)ethyl]-4-piperidine]-3-methylbenzene-sulphonamide] |  | 74 |  |  |  |  |  |  | 84 | 34 | 98 | 36 | 106 | 75 | 15
Cn1ccc2cc(S(=O)(=O)NCC3CN(CCCc4noc5cc(F)ccc45)C3)ccc21 [Compound 150, N-[[1-[3-(6-Fluoro-1,2-benzoxazol-3-yl)propyl]azetidin-3-yl]methyl]-1-methyl-indole-5-sulphonamide] | 85 | 98 | 53 | 60 | 65 | 84 | -9 | 12 |  |  |  |  |  |  | 
